Source: patent US20090118372A1, “Inhibitors Of Biotin Protein Ligase” (Adelaide Research & Innovation Pty Ltd., priority 2004, published 2009)
Blank lines part the entries; values can stand above or below the molecule they belong to.

Key:
[1] = system: T1, hPC-108, biotin domain of human pyruvate carboxylase (C-terminal 108 amino acids), cleaved from GST
T1 sequence: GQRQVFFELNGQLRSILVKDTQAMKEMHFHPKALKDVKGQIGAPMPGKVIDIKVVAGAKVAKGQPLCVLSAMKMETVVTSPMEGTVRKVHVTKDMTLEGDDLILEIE

C. albicans BPL = C. albicans BPL (Candida albicans, UniProt A0A1D8PUA1); test: biochemical; format: biochemical
Procedure: One hundred ng of biotin domain was coated onto each well of Griener Lumitrac 600 White 96-well plates (Stennick Scientific) with >95% of the peptide binding. Coating was performed overnight at 4° C. in 100 uL of Tris Buffered saline (TBS, pH 7.5). The sample was removed and wells blocked in 150 ul of a 1% BSA solution in TBS for 1 hr at 37° C. The blocking buffer was removed and wells washed five times in TBS buffer containing 0.1% Tween-20. Into each well 85 ul of the BPL reaction mix was added. The reaction for both C. albicans and human BPL are performed in 50 mM Tris-HCl pH 8.0, 100 uM ATP, 5.5 mM MgCl2, 0.1 mg/ml BSA, 10 uM biotin, 0.1 uM dithiothreitol.
Ten ul of either buffer alone or buffer containing inhibitor was added to the reaction mix and pre-equilibrated at 37° C. for 5 minutes. BPL reactions are initiated by the addition of 5 ul enzyme to a final concentration of 3.4 nM (1-5 nM). The reaction is allowed to proceed at 37° C. for 15 minutes at which point it is terminated by the addition of 5 ul 0.5 M EDTA (final concentration 25 mM). The reaction mix was discarded and wells washed five times in TBS-TD (TBS, 0.1% Tween-20 and 100 uM diethylenetriaminepentaacetic acid (DPTA)). The quantitative analysis of biotinylated protein formed in the reaction and coupled onto the well surface was determined using time resolved fluorescence. Fifty ul of Europium labelled streptavidin (Perkin-Elmer) solution, diluted to 0.1 ug/ml in TBS-TD, was added to each well. The plates were incubated at 37° C. for 1 hr before being washed five times in TBS-TD then three times in water. Fifty ul of DELFIA Enhancement solution (Perkin Elmer) was added and incubated for ten minutes at room temperature before quantitation. Quantitation was performed using a FLUOstar Galaxy plate reader (BMG Labtechnologies).
Each compound in the screening library was dissolved in 100% DMSO, added to the reactions to a final concentration of 10 μM or 50 μM and their effect on BPL activity measured. […] The inhibitory activity of the compounds was determined relative to the negative control reactions containing only DMSO.

human BPL [2] = target: T2, human BPL (Homo sapiens, UniProt P50747); test: In vitro biotinylation assay of human BPL (Example 9); format: biochemical
T2 construct: Vector pARA(hBPL-His6) was produced by cloning the full-length gene into Nco1/Hind111 treated pARA13; initiator Met (NcoI site) before Ala80 (N); made in house; host or cells: E. coli BL21(DE3)pLys, pET-16b vector
T2 sequence (P50747 80-726 limits assumed): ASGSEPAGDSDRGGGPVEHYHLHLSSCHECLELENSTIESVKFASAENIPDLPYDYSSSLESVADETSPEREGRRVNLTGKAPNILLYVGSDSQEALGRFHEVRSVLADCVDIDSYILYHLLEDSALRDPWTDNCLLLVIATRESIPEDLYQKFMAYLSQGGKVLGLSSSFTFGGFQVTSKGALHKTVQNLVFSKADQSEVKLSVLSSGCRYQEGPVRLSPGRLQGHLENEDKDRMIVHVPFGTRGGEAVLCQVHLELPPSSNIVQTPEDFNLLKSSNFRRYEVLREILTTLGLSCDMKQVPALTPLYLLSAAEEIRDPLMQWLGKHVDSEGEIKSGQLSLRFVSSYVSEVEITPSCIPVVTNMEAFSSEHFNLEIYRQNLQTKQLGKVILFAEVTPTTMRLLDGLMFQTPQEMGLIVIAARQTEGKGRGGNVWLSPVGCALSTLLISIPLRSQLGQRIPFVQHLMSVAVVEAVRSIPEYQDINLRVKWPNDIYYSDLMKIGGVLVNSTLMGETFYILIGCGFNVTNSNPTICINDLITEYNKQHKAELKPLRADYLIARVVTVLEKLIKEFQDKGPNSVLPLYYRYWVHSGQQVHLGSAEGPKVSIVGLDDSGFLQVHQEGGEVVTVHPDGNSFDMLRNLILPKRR
Procedure: (§1) One hundred ng of biotin domain was coated onto each well of Griener Lumitrac 600 White 96-well plates (Stennick Scientific) with >95% of the peptide binding. Coating was performed overnight at 4° C. in 100 uL of Tris Buffered saline (TBS, pH 7.5). The sample was removed and wells blocked in 150 ul of a 1% BSA solution in TBS for 1 hr at 37° C. The blocking buffer was removed and wells washed five times in TBS buffer containing 0.1% Tween-20. Into each well 85 ul of the BPL reaction mix was added. The reaction for both C. albicans and human BPL are performed in 50 mM Tris-HCl pH 8.0, 100 uM ATP, 5.5 mM MgCl2, 0.1 mg/ml BSA, 10 uM biotin, […].
Ten ul of either buffer alone or buffer containing inhibitor was added to the reaction mix and pre-equilibrated at 37° C. for 5 minutes. […] The quantitative analysis of biotinylated protein formed in the reaction and coupled onto the well surface was determined using time resolved fluorescence. […] Fifty ul of DELFIA Enhancement solution (Perkin Elmer) was added and incubated for ten minutes at room temperature before quantitation. Quantitation was performed using a FLUOstar Galaxy plate reader (BMG Labtechnologies). […]
(§2) The activity of BPL from Escherichia coli, Staphylococcus aureus, Saccharomyces cerevisiae and Homo sapiens was measured using an in vitro biotinylation assay in the presence of increasing concentrations of Compounds 2 to 5.

Staphylococcus aureus = test: Antibiotic activity against Staphylococcus aureus on solid media and in liquid culture; format: cell-based; conditions: L-agar, filter disc soaked in 100 μM, overnight 37° C.
Procedure: The antibacterial properties of Compound 2 were assessed against Staphylococcus aureus grown on both solid media (A-C) and in liquid culture (D). Log phase culture was plated onto L-agar and filter discs soaked in A) DMSO (vehicle control), B) 100 μM ampicillin or C) 100 μM compound #2. A single filter was placed in the centre of a bacterial plate before being placed at 37° C. overnight. The clear zone surrounding the disc in B & C represents sensitivity of S. aureus to the treatment. D) This sensitivity was quantitated in liquid culture by seeding 10^4 cells in a 96 well plate followed by overnight growth at 37° C. The growth of the culture was measured by absorbance at 600 nm.

Escherichia coli BPL = target: T3, Escherichia coli BPL (Escherichia coli, UniProt P06709); test: In vitro biotinylation assay of E. coli BPL; format: biochemical
T3 construct: the plasmid pHBA, which contains the entire coding region for E. coli BirA; made in house; host or cells: E. coli BL21(DE3), plasmid pHBA (pET-16b)
Procedure: (§3) Purified hPC-108 was analysed in an in vitro biotinylation assay using recombinant human BPL as follows: BPL activity was assayed by measuring the incorporation of [^3H]biotin into biotin domain. The reactions contained 50 mM Tris-HCl, pH 8.0, 3 mM ATP, 5.5 mM MgCl2, 50 mM KCl, 5 uM biotin, 5 pmol [^3H]biotin (specific activity 35-44 Ci/mmol) 0.1 mM dithiothreitol, 0.1 mg/ml BSA and varying concentrations of hPC-108. The reaction was initiated by addition of purified […] BPL to a final concentration of 13 nM and incubated at 37° C. for up to 30 minutes when aliquots of the reaction were spotted onto biotin- and trichloroacetic acid-treated filters. After air-drying, the filters were washed twice in 10% ice cold trichloroacetic acid and once in ethanol, dried and the acid insoluble radioactivity measured. Values for Km and Vmax were determined by fitting a plot of substrate concentration against rate to the Michaelis-Menten equation using GraphPad Prism for MacIntosh (GraphPad Software Inc, San Diego, Calif.).
as §2

[3] = target: T4, Staphylococcus aureus BPL (UniProt A0A3A5LBF0); test: In vitro biotinylation assay of S. aureus BPL; format: biochemical
T4 sequence (A0A3A5LBF0 1-323): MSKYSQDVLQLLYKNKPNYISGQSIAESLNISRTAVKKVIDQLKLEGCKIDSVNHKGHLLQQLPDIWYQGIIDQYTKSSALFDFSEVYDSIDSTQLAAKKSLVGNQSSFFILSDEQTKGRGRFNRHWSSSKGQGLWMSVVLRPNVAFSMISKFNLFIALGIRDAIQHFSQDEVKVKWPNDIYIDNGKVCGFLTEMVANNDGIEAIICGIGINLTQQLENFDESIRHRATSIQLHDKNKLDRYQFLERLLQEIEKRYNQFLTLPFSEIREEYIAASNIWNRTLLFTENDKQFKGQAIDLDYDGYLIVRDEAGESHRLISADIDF
Procedure: as §3, §2

[4] = target: T5, Saccharomyces cerevisiae BPL (Saccharomyces cerevisiae, UniProt P48445); test: In vitro biotinylation assay of S. cerevisiae BPL; format: biochemical
T5 sequence (P48445 1-690): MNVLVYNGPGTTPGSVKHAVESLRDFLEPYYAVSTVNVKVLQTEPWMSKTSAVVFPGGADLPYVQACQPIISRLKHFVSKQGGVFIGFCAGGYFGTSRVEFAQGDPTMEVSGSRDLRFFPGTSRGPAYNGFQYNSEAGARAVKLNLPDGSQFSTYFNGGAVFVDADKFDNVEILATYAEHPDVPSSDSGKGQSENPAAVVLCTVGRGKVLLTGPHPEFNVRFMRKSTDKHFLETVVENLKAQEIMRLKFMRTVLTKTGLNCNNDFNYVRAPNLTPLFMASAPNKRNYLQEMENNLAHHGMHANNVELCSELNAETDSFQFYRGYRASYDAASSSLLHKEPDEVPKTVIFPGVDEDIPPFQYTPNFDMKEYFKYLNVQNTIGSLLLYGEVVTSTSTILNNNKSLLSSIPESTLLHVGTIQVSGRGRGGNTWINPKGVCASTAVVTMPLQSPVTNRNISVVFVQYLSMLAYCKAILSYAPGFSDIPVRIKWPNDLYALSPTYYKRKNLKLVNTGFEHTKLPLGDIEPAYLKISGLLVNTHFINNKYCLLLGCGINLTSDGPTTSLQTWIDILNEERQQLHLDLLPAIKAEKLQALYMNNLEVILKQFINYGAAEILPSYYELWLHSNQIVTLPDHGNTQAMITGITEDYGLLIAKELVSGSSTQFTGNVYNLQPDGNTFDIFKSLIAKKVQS
Procedure: as §1
Ten ul of either buffer alone or buffer containing inhibitor was added to the reaction mix and pre-equilibrated at 37° C. for 5 minutes. […] The quantitative analysis of biotinylated protein formed in the reaction and coupled onto the well surface was determined using time resolved fluorescence. […] Fifty ul of DELFIA Enhancement solution (Perkin Elmer) was added and incubated for ten minutes at room temperature before quantitation. Quantitation was performed using a FLUOstar Galaxy plate reader (BMG Labtechnologies).
as §2

human BPL [5] = target: T2, human BPL; test: Kinetic analysis of biotinylation of hPC-108, [3H]biotin incorporation assay; format: biochemical; conditions: varying concentrations of hPC-108; read-out: KM of human BPL for the biotin domain
Procedure: as §3

C. albicans BPL, sequence (A0A1D8PUA1 entry or part of it): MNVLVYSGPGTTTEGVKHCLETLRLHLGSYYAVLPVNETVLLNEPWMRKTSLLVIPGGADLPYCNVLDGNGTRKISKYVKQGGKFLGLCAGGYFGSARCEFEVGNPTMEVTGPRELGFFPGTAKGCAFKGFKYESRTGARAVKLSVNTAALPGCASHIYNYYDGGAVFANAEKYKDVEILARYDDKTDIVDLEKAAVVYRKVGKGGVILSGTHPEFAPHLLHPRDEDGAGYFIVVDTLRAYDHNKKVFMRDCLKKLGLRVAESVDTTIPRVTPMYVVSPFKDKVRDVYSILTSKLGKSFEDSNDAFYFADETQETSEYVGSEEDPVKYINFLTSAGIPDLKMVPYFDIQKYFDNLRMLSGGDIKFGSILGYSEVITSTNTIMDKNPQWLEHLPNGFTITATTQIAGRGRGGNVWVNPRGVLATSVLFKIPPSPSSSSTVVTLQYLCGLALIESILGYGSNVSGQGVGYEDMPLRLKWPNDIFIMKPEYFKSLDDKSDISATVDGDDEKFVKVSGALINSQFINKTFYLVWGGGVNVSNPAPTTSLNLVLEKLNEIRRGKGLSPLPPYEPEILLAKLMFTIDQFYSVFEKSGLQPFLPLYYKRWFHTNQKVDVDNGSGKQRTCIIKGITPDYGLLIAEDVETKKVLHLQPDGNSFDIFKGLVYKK
T3 sequence (P06709 whole entry): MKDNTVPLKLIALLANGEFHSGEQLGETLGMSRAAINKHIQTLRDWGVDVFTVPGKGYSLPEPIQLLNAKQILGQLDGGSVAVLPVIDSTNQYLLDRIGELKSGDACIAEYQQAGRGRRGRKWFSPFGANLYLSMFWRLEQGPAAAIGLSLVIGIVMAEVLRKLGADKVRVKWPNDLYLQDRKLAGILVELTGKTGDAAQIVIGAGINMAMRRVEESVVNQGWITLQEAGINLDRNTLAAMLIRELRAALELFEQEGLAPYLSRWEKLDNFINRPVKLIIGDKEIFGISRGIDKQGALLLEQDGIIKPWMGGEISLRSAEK

Molecule: recombinant human biotin protein ligase [Met1-Ala80]hBPL-His6
- KM (in vitro [3H]biotin incorporation assay, Michaelis-Menten fit) [1]: 1.0 ± 0.2 µM

- Inhibition of the Candida BPL reaction (in words) (C. albicans BPL): potent inhibitors
- IC50 (C. albicans BPL; concentration response curve, read-out: IC50, inhibition of Candida BPL activity): 1 ± 0.2 µM
- Inhibition of the human BPL reaction (in words) (human BPL [2]): inhibitor
Molecule: Nc1ncnc2c1ncn2C1OC(COP(=O)(O)OCCCCCC2SCC3NC(=O)NC32)C(O)C1O (stereo not drawn) [BtnOH-AMP, biotinol-adenylate]

Molecule: CC1(C)S[C@@H]2[C@H](NC(=O)[C@H](N)c3ccccc3)C(=O)N2[C@H]1C(=O)O [ampicillin]
- Sensitivity of S. aureus on solid media (filter disc) (Staphylococcus aureus): clear zone

Molecule: O=P(O)(O)OP(=O)(O)O [pyrophosphate]
- Inhibition of the Candida BPL reaction (in words) (C. albicans BPL): potent inhibitors
- Inhibition of the Candida BPL reaction by pyrophosphate (C. albicans BPL; in the range of 50 uM to 1 mM): strongly inhibited

Molecule: C=CCC(Cc1cc(OC)cc(OC)c1)(C(=O)O)C(=O)O [Compound 4, 2-allyl-2-(3,5-dimethoxybenzyl)malonic acid]
- IC50 (human BPL [2]): > 50 µM
- IC50 (Escherichia coli BPL): 0.0009 µM
- IC50 [3]: 2.7 µM
- IC50 [4]: > 50 µM

B1: hPC-108: polypeptide of the C-terminal 108 amino acids (biotin domain) of human pyruvate carboxylase, BPL substrate (protein)
chain: GQRQVFFELNGQLRSILVKDTQAMKEMHFHPKALKDVKGQIGAPMPGKVIDIKVVAGAKVAKGQPLCVLSAMKMETVVTSPMEGTVRKVHVTKDMTLEGDDLILEIE
- Km (human BPL [5]): 1 ± 0.2 µM
